Measurements published in publication PMC4965013, “Open Source Drug Discovery with the Malaria Box Compound Collection for Neglected Diseases and Beyond” (PLoS Pathogens, 2016).

What was measured:
[1] = system: P. falciparum 3D7 trophozoites; assay: Metabolomic fingerprint profiling LC-MS; type: cell-based, Plasmodium falciparum; design: UDP-D-glucose / ADP-D-glucose: unit not given here; conditions: for Acetyllysine / N-acetyl-L-ornithine / N-carbamoyl-L-aspartate / NADPH / dAMP / dCMP / dTDP / dTMP / dTTP / dihydroorotate / orotate / DLH / DLS/SDL/SID / PD / PEE / PVNF / 3-phosphoglycerate / ADP-D-glucose / ATP / CDP / D-sedoheptulose-1/7-phosphate / FAD / GMP / NAD+ / NADP+ / Octoluse Bisphosphate / Pyroglutamic acid / UDP-D-glucose / UDP-D-glucuronate / UDP-N-acetyl-glucosamine / UDP / UMP / UTP / a-ketoglutarate / citrate/isocitrate / cytidine / dATP / dGMP/AMP / fumarate / glucose-1/6-phosphate / glycerate / guanine / guanosine / hypoxanthine / indole / inosine / nicotinate / ornithine / phosphoenolpyruvate / pyruvate / ribose-phosphate / sarcosine/alanine / sn-glycerol-3-phosphate / succinate/methylmalonic acid / uridine / xanthosine: S2 Table Metabolomics; for Acetyllysine: metabolite Acetyllysine; for N-acetyl-L-ornithine: metabolite N-acetyl-L-ornithine; for N-carbamoyl-L-aspartate: metabolite N-carbamoyl-L-aspartate; for NADPH: metabolite NADPH; for dAMP: metabolite dAMP; for dCMP: metabolite dCMP; for dTDP: metabolite dTDP; for dTMP: metabolite dTMP; for dTTP: metabolite dTTP; for dihydroorotate: metabolite dihydroorotate; for orotate: metabolite orotate; for DLH: peptide DLH; for DLS/SDL/SID: peptide DLS/SDL/SID; for PD: peptide PD; for PEE: peptide PEE; for PVNF: peptide PVNF; for 3-phosphoglycerate: metabolite 3-phosphoglycerate; for ADP-D-glucose: metabolite ADP-D-glucose; for ATP: metabolite ATP; for CDP: metabolite CDP; for CDP / D-sedoheptulose-1/7-phosphate / GMP / Octoluse Bisphosphate / UDP / UMP / UTP / citrate/isocitrate / dGMP/AMP / fumarate / glucose-1/6-phosphate / glycerate / guanine / guanosine / inosine / pyruvate / sarcosine/alanine / succinate/methylmalonic acid / uridine / xanthosine: change in metabolite level after compound treatment; for D-sedoheptulose-1/7-phosphate: metabolite D-sedoheptulose-1/7-phosphate; for FAD: metabolite FAD; for GMP: metabolite GMP; for NAD+: metabolite NAD+; for NADP+: metabolite NADP+; for Octoluse Bisphosphate: metabolite Octoluse Bisphosphate; for Pyroglutamic acid: metabolite Pyroglutamic acid; for UDP-D-glucose: metabolite UDP-D-glucose; for UDP-D-glucuronate: metabolite UDP-D-glucuronate; for UDP-N-acetyl-glucosamine: metabolite UDP-N-acetyl-glucosamine; for UDP: metabolite UDP; for UMP: metabolite UMP; for UTP: metabolite UTP; for a-ketoglutarate: metabolite a-ketoglutarate; for citrate/isocitrate: metabolite citrate/isocitrate; for cytidine: metabolite cytidine; for dATP: metabolite dATP; for dGMP/AMP: metabolite dGMP/AMP; for fumarate: metabolite fumarate; for glucose-1/6-phosphate: metabolite glucose-1/6-phosphate; for glycerate: metabolite glycerate; for guanine: metabolite guanine; for guanosine: metabolite guanosine; for hypoxanthine: metabolite hypoxanthine; for indole: metabolite indole; for inosine: metabolite inosine; for 2_3-Diphosphoglyceric acid / 4-phosphopantothenate / 6-phospho-D-gluconate / FMN / IMP / Pyrophosphate / Sedoheptoluse bisphosphate / cyclic-AMP / glutathione disulfide / lactate / myo-inositol: metabolite level change after treatment; for nicotinate: metabolite nicotinate; for ornithine: metabolite ornithine; for phosphoenolpyruvate: metabolite phosphoenolpyruvate; for pyruvate: metabolite pyruvate; for ribose-phosphate: metabolite ribose-phosphate; for sarcosine/alanine: metabolite sarcosine/alanine; for sn-glycerol-3-phosphate: metabolite sn-glycerol-3-phosphate; for succinate/methylmalonic acid: metabolite succinate/methylmalonic acid; for uridine: metabolite uridine; for xanthosine: metabolite xanthosine
[2] = system: P. falciparum; assay: EC50 listed in S2 Table Metabolomics (used to set the concentration tested); type: cell-based; conditions: Plasmodium falciparum; EC50 used for Factor_XEC50 in metabolomics; read-out: EC50_nM

## CCCc1cc(O)c2c3c(c(=O)oc2c1)CN(C)CC3 [MMV665841]
[1]
  Acetyllysine: -2.612
  N-acetyl-L-ornithine: -1.949
  N-carbamoyl-L-aspartate: -0.955
  NADPH: 0.07097
  dAMP: -0.5338
  dCMP: 0.378
  dTDP: -0.09857
  dTMP: -0.08494
  dTTP: 0.3392
  dihydroorotate: -0.7381
  orotate: -0.6991
  DLH: -2.223
  DLS/SDL/SID: -2.0523
  PD: -2.506
  PEE: -2.465
  PVNF: -2.267
  3-phosphoglycerate: 0.2411
  ADP-D-glucose: 0.03562
  ATP: 0.3706
  CDP: -0.1497
  D-sedoheptulose-1/7-phosphate: -0.0969
  FAD: 0.4757
  GMP: 0.7431
  NAD+: 0.1538
  NADP+: 0.3743
  Octoluse Bisphosphate: -0.2246
  Pyroglutamic acid: 0.8685
  UDP-D-glucose: 0.1781
  UDP-D-glucuronate: 0.2234
  UDP-N-acetyl-glucosamine: 0.1163
  UDP: -0.165
  UMP: 0.01879
  UTP: 0.1488
  a-ketoglutarate: -1.017
  citrate/isocitrate: -0.03416
  cytidine: 0.6575
  dATP: -0.1225
  dGMP/AMP: -0.03336
  fumarate: -0.991
  glucose-1/6-phosphate: 0.02998
  glycerate: -0.7467
  guanine: -0.195
  guanosine: -0.4835
  hypoxanthine: 0.1991
  indole: -0.2191
  inosine: 0.006205
  2_3-Diphosphoglyceric acid: 0.1243
  4-phosphopantothenate: -0.4271
  6-phospho-D-gluconate: -0.03292
  FMN: 0.1348
  IMP: -0.4143
  Pyrophosphate: 0.01603
  Sedoheptoluse bisphosphate: -0.2052
  cyclic-AMP: -0.23
  glutathione disulfide: -0.3848
  lactate: -0.3481
  myo-inositol: -0.7715
  nicotinate: -0.06082
  ornithine: -0.04541
  phosphoenolpyruvate: 0.2681
  pyruvate: -0.1725
  ribose-phosphate: -0.5158
  sarcosine/alanine: -1.291
  sn-glycerol-3-phosphate: -0.1021
  succinate/methylmalonic acid: -0.1585
  uridine: -0.2002
  xanthosine: -0.28
[2]
  EC50: 146 nM

## Cc1cc(Nc2ccc(C)c(Cl)c2)n2nc(C(F)(F)F)nc2n1 [MMV665874]
[1]
  Acetyllysine: -0.4022
  N-acetyl-L-ornithine: -0.2526
  N-carbamoyl-L-aspartate: 4.028
  NADPH: 0.1752
  dAMP: -0.05231
  dCMP: -0.05814
  dTDP: -1.343
  dTMP: -1.0853
  dTTP: -1.254
  dihydroorotate: 5.397
  orotate: 0.2167
  DLH: -0.1943
  DLS/SDL/SID: -0.1199
  PD: -0.005549
  PEE: -0.4065
  PVNF: -0.2835
  3-phosphoglycerate: 0.03547
  ADP-D-glucose: 0.02005
  ATP: 0.1462
  CDP: -0.8722
  D-sedoheptulose-1/7-phosphate: -0.2118
  FAD: -0.01762
  GMP: 0.4662
  NAD+: -0.1
  NADP+: -0.1197
  Octoluse Bisphosphate: 0.03302
  Pyroglutamic acid: 0.08116
  UDP-D-glucose: -0.2063
  UDP-D-glucuronate: -0.109
  UDP-N-acetyl-glucosamine: -0.4453
  UDP: -1.835
  UMP: -1.099
  UTP: -1.702
  a-ketoglutarate: -0.1317
  citrate/isocitrate: -0.1582
  cytidine: -0.03725
  dATP: 0.3143
  dGMP/AMP: 0.07446
  fumarate: -0.3892
  glucose-1/6-phosphate: 0.2173
  glycerate: 0.07615
  guanine: 0.251
  guanosine: 0.7775
  hypoxanthine: -0.1073
  indole: -0.01704
  inosine: -0.02522
  2_3-Diphosphoglyceric acid: 0.1914
  4-phosphopantothenate: -0.3242
  6-phospho-D-gluconate: 0.01162
  FMN: -0.4401
  IMP: -0.2175
  Pyrophosphate: 0.07871
  Sedoheptoluse bisphosphate: 0.06707
  cyclic-AMP: -0.1282
  glutathione disulfide: -0.03556
  lactate: -0.043
  myo-inositol: -0.09181
  nicotinate: -0.01808
  ornithine: 0.04606
  phosphoenolpyruvate: 0.07297
  pyruvate: 0.2233
  ribose-phosphate: 0.2644
  sarcosine/alanine: 0.1358
  sn-glycerol-3-phosphate: 0.2659
  succinate/methylmalonic acid: -1.091
  uridine: -0.8568
  xanthosine: -0.03941
[2]
  EC50: 6.71 nM
